≈ marks a conversion by molar mass, not a printed value.

Assay [1] concerns Saccharomyces cerevisiae. Nature of the assay: DNA damaging activity against yeast 1138 mutant assessed as drug level required to produce 12 mm zone of inhibition. The assay is classed as functional.
Assay [2] concerns Saccharomyces cerevisiae. Briefly: DNA damaging activity against yeast 1140 mutant assessed as drug level required to produce 12 mm zone of inhibition. It counts as functional.
Assay [3] deals with Saccharomyces cerevisiae. Briefly: DNA damaging activity against yeast 1353 mutant assessed as drug level required to produce 12 mm zone of inhibition. The assay is classed as functional.
The subject of assay [4] is Saccharomyces cerevisiae. Briefly: DNA damaging activity against yeast Sc7 mutant assessed as drug level required to produce 12 mm zone of inhibition. The assay is classed as functional.
The next assay deals with A2780. Briefly: Cytotoxicity against human A2780 cells. The assay is classed as functional, cell-based.

In the case of `C/C=C(/C)C(=O)O[C@H]1[C@H](OC(=O)C=C(C)C)[C@@]2(CO)[C@H](CC1(C)C)C1=CC[C@@H]3[C@@]4(C)CC[C@H](O[C@@H]5O[C@H](C(=O)O)[C@@H](O[C@H]6O[C@H](CO)[C@@H](O)[C@@H]6O)[C@H](O[C@H]6OC[C@@H](O)[C@@H](O)[C@@H]6O)[C@H]5O[C@@H]5O[C@H](CO)[C@@H](O)[C@H](O)[C@H]5O)C(C)(C)[C@@H]4CC[C@@]3(C)[C@]1(C)[C@@H](O)[C@H]2O` [PITTOVIRIDOSIDE], the IC12 with Saccharomyces cerevisiae [1] worked out at 85 µg/mL; in the assay on Saccharomyces cerevisiae [2] it was 80 µg/mL; in the assay with Saccharomyces cerevisiae [3] it was 140 µg/mL; in the assay on Saccharomyces cerevisiae [4], 100 µg/mL. Besides, the half-maximal inhibitory concentration (IC50) in the assay with A2780 was found to be 10.1 µg/mL (≈ 7.93 µM).

(Values after ChEMBL document CHEMBL1159308, “A new triterpene saponin from Pittosporum viridiflorum from the Madagascar rainforest” (J Nat Prod, 2002).)
